In article PMC6421522, “Designing Dual Inhibitors of Anaplastic Lymphoma Kinase (ALK) and Bromodomain-4 (BRD4) by Tuning Kinase Selectivity” (Journal of Medicinal Chemistry, 2019):

What was measured:
Type in all cases: binding
ALK WT = ALK WT (Homo sapiens, UniProt Q9UM73); experiment: Biochemical ALK WT IC50; details: geometric mean
ACVR1B = target: T1, ACVR1B (Homo sapiens, UniProt P36896); experiment: KINOMEscan scanEDGE; details: read-out: % Control (1µM)
T1 construct: purchased DiscoveRx KINOMEscan (scanEDGE); Thermo Fisher SelectScreen (Z'-LYTE) for PLK-1
Experimental: (§1) Compound X was assayed at 1 μM in the DiscoveRx KINOMEscan (scanEDGE) assay platform. The results for single-concentration binding interactions are reported as “%Ctrl” (DMSO = 100%Ctrl), where lower numbers indicate stronger hits.

ADCK3 = target: T2, ADCK3 (Homo sapiens, UniProt Q8NI60); experiment: KINOMEscan scanEDGE; details: read-out: % Control (1µM)
T2 construct: purchased DiscoveRx KINOMEscan (scanEDGE); Thermo Fisher SelectScreen (Z'-LYTE) for PLK-1
Experimental: as §1

AKT1 = target: T3, AKT1 (Homo sapiens, UniProt P31749); experiment: KINOMEscan scanEDGE; details: read-out: % Control (1µM)
T3 construct: purchased DiscoveRx KINOMEscan (scanEDGE); Thermo Fisher SelectScreen (Z'-LYTE) for PLK-1
Experimental: as §1

AURKB = target: T4, AURKB (Homo sapiens, UniProt Q96GD4); experiment: KINOMEscan scanEDGE; details: read-out: % Control (1µM)
T4 construct: purchased DiscoveRx KINOMEscan (scanEDGE); Thermo Fisher SelectScreen (Z'-LYTE) for PLK-1
Experimental: as §1

BRAF = target: T5, BRAF (Homo sapiens, UniProt P15056); experiment: KINOMEscan scanEDGE; details: read-out: % Control (1µM)
T5 construct: purchased DiscoveRx KINOMEscan (scanEDGE); Thermo Fisher SelectScreen (Z'-LYTE) for PLK-1
Experimental: as §1

CDK9 = target: T6, CDK9 (Homo sapiens, UniProt P50750); experiment: KINOMEscan scanEDGE; details: read-out: % Control (1µM)
T6 construct: purchased DiscoveRx KINOMEscan (scanEDGE); Thermo Fisher SelectScreen (Z'-LYTE) for PLK-1
Experimental: as §1

CSF1R = target: T7, CSF1R (Homo sapiens, UniProt P07333); experiment: KINOMEscan scanEDGE; details: read-out: % Control (1µM)
T7 construct: purchased DiscoveRx KINOMEscan (scanEDGE); Thermo Fisher SelectScreen (Z'-LYTE) for PLK-1
Experimental: as §1

CSNK1G2 = target: T8, CSNK1G2 (Homo sapiens, UniProt P78368); experiment: KINOMEscan scanEDGE; details: read-out: % Control (1µM)
T8 construct: purchased DiscoveRx KINOMEscan (scanEDGE); Thermo Fisher SelectScreen (Z'-LYTE) for PLK-1
Experimental: as §1

DYRK1B = target: T9, DYRK1B (Homo sapiens, UniProt Q9Y463); experiment: KINOMEscan scanEDGE; details: read-out: % Control (1µM)
T9 construct: purchased DiscoveRx KINOMEscan (scanEDGE); Thermo Fisher SelectScreen (Z'-LYTE) for PLK-1
Experimental: as §1

EGFR = target: T10, EGFR (Homo sapiens, UniProt P00533); experiment: KINOMEscan scanEDGE; details: read-out: % Control (1µM)
T10 construct: purchased DiscoveRx KINOMEscan (scanEDGE); Thermo Fisher SelectScreen (Z'-LYTE) for PLK-1
Experimental: as §1

ERBB2 = target: T11, ERBB2 (Homo sapiens, UniProt P04626); experiment: KINOMEscan scanEDGE; details: read-out: % Control (1µM)
T11 construct: purchased DiscoveRx KINOMEscan (scanEDGE); Thermo Fisher SelectScreen (Z'-LYTE) for PLK-1
Experimental: as §1

FAK = target: T12, FAK (Homo sapiens, UniProt Q05397); experiment: KINOMEscan scanEDGE; details: read-out: % Control (1µM)
T12 construct: purchased DiscoveRx KINOMEscan (scanEDGE); Thermo Fisher SelectScreen (Z'-LYTE) for PLK-1
Experimental: as §1

FGFR2 = target: T13, FGFR2 (Homo sapiens, UniProt P21802); experiment: KINOMEscan scanEDGE; details: read-out: % Control (1µM)
T13 construct: purchased DiscoveRx KINOMEscan (scanEDGE); Thermo Fisher SelectScreen (Z'-LYTE) for PLK-1
Experimental: as §1

FGFR3 = target: T14, FGFR3 (Homo sapiens, UniProt P22607); experiment: KINOMEscan scanEDGE; details: read-out: % Control (1µM)
T14 construct: purchased DiscoveRx KINOMEscan (scanEDGE); Thermo Fisher SelectScreen (Z'-LYTE) for PLK-1
Experimental: as §1

GSK3B = target: T15, GSK3B (Homo sapiens, UniProt P49841); experiment: KINOMEscan scanEDGE; details: read-out: % Control (1µM)
T15 construct: purchased DiscoveRx KINOMEscan (scanEDGE); Thermo Fisher SelectScreen (Z'-LYTE) for PLK-1
Experimental: as §1

IGF1R = target: T16, IGF1R (Homo sapiens, UniProt P08069); experiment: KINOMEscan scanEDGE; details: read-out: % Control (1µM)
T16 construct: purchased DiscoveRx KINOMEscan (scanEDGE); Thermo Fisher SelectScreen (Z'-LYTE) for PLK-1
Experimental: as §1

[1] = target: T17, JAK2(JH1domain-catalytic) (Homo sapiens, UniProt O60674); experiment: KINOMEscan scanEDGE; details: read-out: % Control (1µM)
T17 construct: JAK2(JH1domain-catalytic); purchased DiscoveRx KINOMEscan (scanEDGE); Thermo Fisher SelectScreen (Z'-LYTE) for PLK-1
Experimental: as §1

JNK1 = target: T18, JNK1 (Homo sapiens, UniProt P45983); experiment: KINOMEscan scanEDGE; details: read-out: % Control (1µM)
T18 construct: purchased DiscoveRx KINOMEscan (scanEDGE); Thermo Fisher SelectScreen (Z'-LYTE) for PLK-1
Experimental: as §1

JNK2 = target: T19, JNK2 (Homo sapiens, UniProt P45984); experiment: KINOMEscan scanEDGE; details: read-out: % Control (1µM)
T19 construct: purchased DiscoveRx (DiscoverX)
Experimental: as §1

JNK3 = target: T20, JNK3 (Homo sapiens, UniProt P53779); experiment: KINOMEscan scanEDGE; details: read-out: % Control (1µM)
T20 construct: purchased DiscoveRx (DiscoverX)
Experimental: as §1

KIT(D816V) = target: T21, KIT(D816V) (Homo sapiens, UniProt P10721, D816V); experiment: KINOMEscan scanEDGE; details: read-out: % Control (1µM)
T21 construct: purchased DiscoveRx KINOMEscan (scanEDGE); Thermo Fisher SelectScreen (Z'-LYTE) for PLK-1
Experimental: as §1

LKB1 = target: T22, LKB1 (Homo sapiens, UniProt Q15831); experiment: KINOMEscan scanEDGE; details: read-out: % Control (1µM)
T22 construct: purchased DiscoveRx KINOMEscan (scanEDGE); Thermo Fisher SelectScreen (Z'-LYTE) for PLK-1
Experimental: as §1

MARK3 = target: T23, MARK3 (Homo sapiens, UniProt P27448); experiment: KINOMEscan scanEDGE; details: read-out: % Control (1µM)
T23 construct: purchased DiscoveRx KINOMEscan (scanEDGE); Thermo Fisher SelectScreen (Z'-LYTE) for PLK-1
Experimental: as §1

MKNK2 = target: T24, MKNK2 (Homo sapiens, UniProt Q9HBH9); experiment: KINOMEscan scanEDGE; details: read-out: % Control (1µM)
T24 construct: purchased DiscoveRx KINOMEscan (scanEDGE); Thermo Fisher SelectScreen (Z'-LYTE) for PLK-1
Experimental: as §1

MLK1 = target: T25, MLK1 (Homo sapiens, UniProt P80192); experiment: KINOMEscan scanEDGE; details: read-out: % Control (1µM)
T25 construct: purchased DiscoveRx KINOMEscan (scanEDGE); Thermo Fisher SelectScreen (Z'-LYTE) for PLK-1
Experimental: as §1

PAK2 = target: T26, PAK2 (Homo sapiens, UniProt Q13177); experiment: KINOMEscan scanEDGE; details: read-out: % Control (1µM)
T26 construct: purchased DiscoveRx KINOMEscan (scanEDGE); Thermo Fisher SelectScreen (Z'-LYTE) for PLK-1
Experimental: as §1

PAK4 = target: T27, PAK4 (Homo sapiens, UniProt O96013); experiment: KINOMEscan scanEDGE; details: read-out: % Control (1µM)
T27 construct: purchased DiscoveRx KINOMEscan (scanEDGE); Thermo Fisher SelectScreen (Z'-LYTE) for PLK-1
Experimental: as §1

PDGFRB = target: T28, PDGFRB (Homo sapiens, UniProt P09619); experiment: KINOMEscan scanEDGE; details: read-out: % Control (1µM)
T28 construct: purchased DiscoveRx KINOMEscan (scanEDGE); Thermo Fisher SelectScreen (Z'-LYTE) for PLK-1
Experimental: as §1

PIK3CG = target: T29, PIK3CG (Homo sapiens, UniProt P48736); experiment: KINOMEscan scanEDGE; details: read-out: % Control (1µM)
T29 construct: purchased DiscoveRx KINOMEscan (scanEDGE); Thermo Fisher SelectScreen (Z'-LYTE) for PLK-1
Experimental: as §1

PKAC-alpha = target: T30, PKAC-alpha (Homo sapiens, UniProt P17612); experiment: KINOMEscan scanEDGE; details: read-out: % Control (1µM)
T30 construct: purchased DiscoveRx KINOMEscan (scanEDGE); Thermo Fisher SelectScreen (Z'-LYTE) for PLK-1
Experimental: as §1

RIOK2 = target: T31, RIOK2 (Homo sapiens, UniProt Q9BVS4); experiment: KINOMEscan scanEDGE; details: read-out: % Control (1µM)
T31 construct: purchased DiscoveRx KINOMEscan (scanEDGE); Thermo Fisher SelectScreen (Z'-LYTE) for PLK-1
Experimental: as §1

[2] = target: T32, RSK2(Kin.Dom.1-N-terminal) (Homo sapiens, UniProt P51812); experiment: KINOMEscan scanEDGE; details: read-out: % Control (1µM)
T32 construct: RSK2(Kin.Dom.1-N-terminal); purchased DiscoveRx KINOMEscan (scanEDGE); Thermo Fisher SelectScreen (Z'-LYTE) for PLK-1
Experimental: as §1

SNARK = target: T33, SNARK (Homo sapiens, UniProt Q9H093); experiment: KINOMEscan scanEDGE; details: read-out: % Control (1µM)
T33 construct: purchased DiscoveRx KINOMEscan (scanEDGE); Thermo Fisher SelectScreen (Z'-LYTE) for PLK-1
Experimental: as §1

SRC = target: T34, SRC (Homo sapiens, UniProt P12931); experiment: KINOMEscan scanEDGE; details: read-out: % Control (1µM)
T34 construct: purchased DiscoveRx KINOMEscan (scanEDGE); Thermo Fisher SelectScreen (Z'-LYTE) for PLK-1
Experimental: as §1

SRPK3 = target: T35, SRPK3 (Homo sapiens, UniProt Q9UPE1); experiment: KINOMEscan scanEDGE; details: read-out: % Control (1µM)
T35 construct: purchased DiscoveRx KINOMEscan (scanEDGE); Thermo Fisher SelectScreen (Z'-LYTE) for PLK-1
Experimental: as §1

[3] = target: T36, TYK2(JH1domain-catalytic) (Homo sapiens, UniProt P29597); experiment: KINOMEscan scanEDGE; details: read-out: % Control (1µM)
T36 construct: TYK2(JH1domain-catalytic); purchased DiscoveRx KINOMEscan (scanEDGE); Thermo Fisher SelectScreen (Z'-LYTE) for PLK-1
Experimental: as §1

VEGFR2 = target: T37, VEGFR2 (Homo sapiens, UniProt P35968); experiment: KINOMEscan scanEDGE; details: read-out: % Control (1µM)
T37 construct: purchased DiscoveRx (DiscoverX)
Experimental: as §1

YANK3 = target: T38, YANK3 (Homo sapiens, UniProt Q86UX6); experiment: KINOMEscan scanEDGE; details: read-out: % Control (1µM)
T38 construct: purchased DiscoveRx (DiscoverX)
Experimental: as §1

ZAP70 = target: T39, ZAP70 (Homo sapiens, UniProt P43403); experiment: KINOMEscan scanEDGE; details: read-out: % Control (1µM)
T39 construct: purchased DiscoveRx (DiscoverX)
Experimental: as §1

p38-alpha = target: T40, p38-alpha (Homo sapiens, UniProt Q16539); experiment: KINOMEscan scanEDGE; details: read-out: % Control (1µM)
T40 construct: purchased DiscoveRx KINOMEscan (scanEDGE); Thermo Fisher SelectScreen (Z'-LYTE) for PLK-1
Experimental: as §1

T24 sequence (Q9HBH9 whole entry): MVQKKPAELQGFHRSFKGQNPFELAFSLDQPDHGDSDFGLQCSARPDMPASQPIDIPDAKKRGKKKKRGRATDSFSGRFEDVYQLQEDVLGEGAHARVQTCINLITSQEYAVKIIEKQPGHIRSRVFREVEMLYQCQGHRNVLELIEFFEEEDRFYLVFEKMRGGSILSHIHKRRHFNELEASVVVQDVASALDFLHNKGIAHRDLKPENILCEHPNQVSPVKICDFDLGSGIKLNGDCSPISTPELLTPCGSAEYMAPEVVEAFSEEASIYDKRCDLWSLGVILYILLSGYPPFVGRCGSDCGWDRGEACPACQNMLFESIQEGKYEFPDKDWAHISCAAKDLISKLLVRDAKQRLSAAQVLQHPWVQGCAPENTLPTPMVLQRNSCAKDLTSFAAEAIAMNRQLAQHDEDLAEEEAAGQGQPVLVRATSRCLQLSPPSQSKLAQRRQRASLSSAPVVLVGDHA
T19 sequence (P45984 whole entry): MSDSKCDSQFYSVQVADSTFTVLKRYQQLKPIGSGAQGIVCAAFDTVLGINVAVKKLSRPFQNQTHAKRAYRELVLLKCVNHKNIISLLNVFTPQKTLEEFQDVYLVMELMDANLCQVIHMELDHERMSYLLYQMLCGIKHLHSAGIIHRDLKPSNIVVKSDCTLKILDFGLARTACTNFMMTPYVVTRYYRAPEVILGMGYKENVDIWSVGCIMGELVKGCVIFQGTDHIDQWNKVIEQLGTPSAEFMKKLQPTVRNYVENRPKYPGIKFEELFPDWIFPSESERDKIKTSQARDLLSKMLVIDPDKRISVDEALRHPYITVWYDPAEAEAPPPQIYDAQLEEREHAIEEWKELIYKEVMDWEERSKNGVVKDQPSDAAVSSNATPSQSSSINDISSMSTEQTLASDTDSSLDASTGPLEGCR
T34 sequence (P12931 whole entry): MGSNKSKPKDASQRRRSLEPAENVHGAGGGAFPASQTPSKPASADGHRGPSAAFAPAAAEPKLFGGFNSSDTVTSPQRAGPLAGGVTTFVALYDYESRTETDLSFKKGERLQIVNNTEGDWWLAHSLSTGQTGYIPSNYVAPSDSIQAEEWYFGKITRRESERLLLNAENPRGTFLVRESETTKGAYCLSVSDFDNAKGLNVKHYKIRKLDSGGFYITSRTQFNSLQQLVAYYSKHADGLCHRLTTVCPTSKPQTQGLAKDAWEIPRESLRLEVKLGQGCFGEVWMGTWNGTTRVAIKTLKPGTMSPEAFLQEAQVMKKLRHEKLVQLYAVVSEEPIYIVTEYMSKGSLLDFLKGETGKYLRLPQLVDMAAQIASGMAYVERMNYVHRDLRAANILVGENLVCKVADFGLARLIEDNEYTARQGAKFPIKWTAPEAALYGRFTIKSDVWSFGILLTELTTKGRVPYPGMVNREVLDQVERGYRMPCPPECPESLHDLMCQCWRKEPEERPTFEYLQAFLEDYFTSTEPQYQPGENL
T3 sequence (P31749 whole entry): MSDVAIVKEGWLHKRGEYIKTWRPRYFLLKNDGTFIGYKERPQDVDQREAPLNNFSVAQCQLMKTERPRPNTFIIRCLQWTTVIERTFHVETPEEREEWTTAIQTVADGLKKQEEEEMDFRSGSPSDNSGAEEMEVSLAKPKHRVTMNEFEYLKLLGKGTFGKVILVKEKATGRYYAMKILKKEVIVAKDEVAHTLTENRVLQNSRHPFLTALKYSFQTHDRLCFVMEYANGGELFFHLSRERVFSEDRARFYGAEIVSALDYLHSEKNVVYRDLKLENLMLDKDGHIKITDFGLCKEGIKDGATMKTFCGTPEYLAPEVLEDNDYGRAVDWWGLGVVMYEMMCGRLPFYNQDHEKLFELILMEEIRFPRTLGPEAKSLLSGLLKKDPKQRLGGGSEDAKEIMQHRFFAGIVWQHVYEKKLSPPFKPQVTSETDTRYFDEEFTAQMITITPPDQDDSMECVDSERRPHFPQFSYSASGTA
T29 sequence (P48736 whole entry): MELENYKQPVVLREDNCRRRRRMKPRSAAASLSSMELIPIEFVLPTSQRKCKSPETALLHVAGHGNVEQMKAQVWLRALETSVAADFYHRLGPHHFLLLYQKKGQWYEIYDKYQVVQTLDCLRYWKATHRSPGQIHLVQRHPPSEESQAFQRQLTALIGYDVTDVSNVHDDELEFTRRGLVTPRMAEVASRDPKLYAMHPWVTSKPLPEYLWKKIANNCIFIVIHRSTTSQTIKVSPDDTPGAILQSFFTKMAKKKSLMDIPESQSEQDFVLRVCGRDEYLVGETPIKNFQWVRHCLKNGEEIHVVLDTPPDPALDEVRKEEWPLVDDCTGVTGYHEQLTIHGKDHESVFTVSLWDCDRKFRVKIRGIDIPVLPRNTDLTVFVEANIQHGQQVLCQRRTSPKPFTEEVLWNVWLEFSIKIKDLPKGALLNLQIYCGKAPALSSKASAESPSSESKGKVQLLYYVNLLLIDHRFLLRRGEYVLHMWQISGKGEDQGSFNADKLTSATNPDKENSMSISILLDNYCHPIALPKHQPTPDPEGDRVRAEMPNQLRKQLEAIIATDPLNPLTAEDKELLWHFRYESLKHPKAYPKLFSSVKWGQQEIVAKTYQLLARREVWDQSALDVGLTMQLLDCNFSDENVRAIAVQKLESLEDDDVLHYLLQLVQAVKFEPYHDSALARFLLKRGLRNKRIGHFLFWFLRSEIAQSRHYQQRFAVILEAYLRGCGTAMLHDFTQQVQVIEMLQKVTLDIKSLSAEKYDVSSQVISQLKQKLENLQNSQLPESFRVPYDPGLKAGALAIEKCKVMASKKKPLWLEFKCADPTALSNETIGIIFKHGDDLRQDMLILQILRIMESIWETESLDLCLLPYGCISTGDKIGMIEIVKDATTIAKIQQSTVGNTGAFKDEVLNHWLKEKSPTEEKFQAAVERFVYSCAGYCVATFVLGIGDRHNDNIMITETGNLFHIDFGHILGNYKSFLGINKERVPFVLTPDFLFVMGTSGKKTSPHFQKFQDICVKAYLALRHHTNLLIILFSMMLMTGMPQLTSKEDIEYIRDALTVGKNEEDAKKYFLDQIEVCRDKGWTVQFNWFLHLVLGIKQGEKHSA
T1 sequence (P36896 24-505): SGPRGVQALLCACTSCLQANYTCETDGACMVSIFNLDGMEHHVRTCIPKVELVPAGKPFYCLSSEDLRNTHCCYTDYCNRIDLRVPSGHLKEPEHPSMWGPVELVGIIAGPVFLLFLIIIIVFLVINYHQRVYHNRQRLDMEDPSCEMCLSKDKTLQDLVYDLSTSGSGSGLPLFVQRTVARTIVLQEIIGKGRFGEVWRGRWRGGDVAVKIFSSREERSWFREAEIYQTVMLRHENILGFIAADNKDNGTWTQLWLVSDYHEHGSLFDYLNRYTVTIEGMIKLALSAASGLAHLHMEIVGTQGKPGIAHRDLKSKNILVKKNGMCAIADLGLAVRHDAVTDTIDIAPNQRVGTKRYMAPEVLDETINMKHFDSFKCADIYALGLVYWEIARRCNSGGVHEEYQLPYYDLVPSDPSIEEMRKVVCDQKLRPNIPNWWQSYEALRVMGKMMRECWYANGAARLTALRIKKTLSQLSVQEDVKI
T33 sequence (Q9H093 whole entry): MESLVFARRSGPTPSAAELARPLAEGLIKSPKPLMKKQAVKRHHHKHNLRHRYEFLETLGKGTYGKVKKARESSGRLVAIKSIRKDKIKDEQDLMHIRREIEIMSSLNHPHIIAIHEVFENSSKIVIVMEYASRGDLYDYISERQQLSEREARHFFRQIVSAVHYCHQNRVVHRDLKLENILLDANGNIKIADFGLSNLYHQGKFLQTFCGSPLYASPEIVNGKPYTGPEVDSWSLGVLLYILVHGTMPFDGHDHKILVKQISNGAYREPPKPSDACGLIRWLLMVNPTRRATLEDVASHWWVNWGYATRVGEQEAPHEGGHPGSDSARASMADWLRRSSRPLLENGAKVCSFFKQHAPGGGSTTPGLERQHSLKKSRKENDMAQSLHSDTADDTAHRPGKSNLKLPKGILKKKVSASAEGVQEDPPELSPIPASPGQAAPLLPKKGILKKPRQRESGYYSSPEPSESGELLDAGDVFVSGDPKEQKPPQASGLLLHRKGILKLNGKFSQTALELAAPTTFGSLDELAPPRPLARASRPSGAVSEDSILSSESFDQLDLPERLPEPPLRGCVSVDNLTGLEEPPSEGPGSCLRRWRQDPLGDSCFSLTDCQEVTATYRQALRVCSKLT
T6 sequence (P50750 whole entry): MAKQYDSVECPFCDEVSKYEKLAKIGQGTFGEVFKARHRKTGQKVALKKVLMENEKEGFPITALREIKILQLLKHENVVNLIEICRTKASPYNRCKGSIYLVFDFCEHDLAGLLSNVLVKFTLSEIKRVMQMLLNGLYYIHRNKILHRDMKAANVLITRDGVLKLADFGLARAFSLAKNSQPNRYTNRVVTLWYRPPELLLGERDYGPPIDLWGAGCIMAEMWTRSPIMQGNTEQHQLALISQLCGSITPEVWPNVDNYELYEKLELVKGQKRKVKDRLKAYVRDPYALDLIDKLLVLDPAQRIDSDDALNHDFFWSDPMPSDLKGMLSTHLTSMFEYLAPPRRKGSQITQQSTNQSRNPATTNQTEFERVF
T2 sequence (Q8NI60 163-647): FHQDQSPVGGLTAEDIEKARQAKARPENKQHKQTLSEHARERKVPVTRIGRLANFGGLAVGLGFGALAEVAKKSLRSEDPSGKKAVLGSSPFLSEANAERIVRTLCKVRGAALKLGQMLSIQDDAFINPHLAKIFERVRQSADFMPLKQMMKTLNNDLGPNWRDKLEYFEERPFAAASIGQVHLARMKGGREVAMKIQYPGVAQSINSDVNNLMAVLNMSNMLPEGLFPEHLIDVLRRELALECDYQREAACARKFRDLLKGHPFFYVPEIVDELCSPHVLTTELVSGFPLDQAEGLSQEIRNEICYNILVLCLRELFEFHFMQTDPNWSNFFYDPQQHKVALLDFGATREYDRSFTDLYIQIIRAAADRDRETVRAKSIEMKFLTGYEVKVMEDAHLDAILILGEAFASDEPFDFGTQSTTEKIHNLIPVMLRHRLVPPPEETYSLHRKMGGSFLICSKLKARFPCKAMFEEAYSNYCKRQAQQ

Structure (SMILES): CCOc1cc(C2CCN(C)CC2)ccc1Nc1ncc2c(n1)N(Cc1cc(C)cs1)[C@H](CC)C(=O)N2C [16k, (R)-2-((2-Ethoxy-4-(1-methylpiperidin-4-yl)phenyl)amino)-7-ethyl-5-methyl-8-((4-methylthiophen-2-yl)methyl)-7,8-dihydropteridin-6(5H)-one]
- IC50 (ALK WT): 60 ± 12 nM
- remaining binding at 1 µM (ACVR1B): 85%
- remaining binding at 1 µM (ADCK3): 100%
- remaining binding at 1 µM (AKT1): 96%
- remaining binding at 1 µM (AURKB): 86%
- remaining binding at 1 µM (BRAF): 100%
- remaining binding at 1 µM (CDK9): 100%
- remaining binding at 1 µM (CSF1R): 100%
- remaining binding at 1 µM (CSNK1G2): 100%
- remaining binding at 1 µM (DYRK1B): 63%
- remaining binding at 1 µM (EGFR): 86%
- remaining binding at 1 µM (ERBB2): 100%
- remaining binding at 1 µM (FAK): 60%
- remaining binding at 1 µM (FGFR2): 100%
- remaining binding at 1 µM (FGFR3): 98%
- remaining binding at 1 µM (GSK3B): 82%
- remaining binding at 1 µM (IGF1R): 77%
- remaining binding at 1 µM [1]: 83%
- remaining binding at 1 µM (JNK1): 64%
- remaining binding at 1 µM (JNK2): 44%
- remaining binding at 1 µM (JNK3): 39%
- remaining binding at 1 µM (KIT(D816V)): 100%
- remaining binding at 1 µM (LKB1): 82%
- remaining binding at 1 µM (MARK3): 100%
- remaining binding at 1 µM (MKNK2): 60%
- remaining binding at 1 µM (MLK1): 100%
- remaining binding at 1 µM (PAK2): 100%
- remaining binding at 1 µM (PAK4): 100%
- remaining binding at 1 µM (PDGFRB): 100%
- remaining binding at 1 µM (PIK3CG): 98%
- remaining binding at 1 µM (PKAC-alpha): 100%
- remaining binding at 1 µM (RIOK2): 74%
- remaining binding at 1 µM [2]: 59%
- remaining binding at 1 µM (SNARK): 100%
- remaining binding at 1 µM (SRC): 100%
- remaining binding at 1 µM (SRPK3): 100%
- remaining binding at 1 µM [3]: 100%
- remaining binding at 1 µM (VEGFR2): 87%
- remaining binding at 1 µM (YANK3): 100%
- remaining binding at 1 µM (ZAP70): 94%
- remaining binding at 1 µM (p38-alpha): 92%
